target: MAPKAPK2 (Homo sapiens, UniProt P49137); assay: MK2 Enzymatic Assay; assay type: biochemical; conditions: 0.5 nM MAPKAPK2, 3 μM ATP, 2 μM Ser/Thr4 peptide, 23° C., values given as concentration bins
Procedure: Briefly, 5 μL of 2× (4 μM) 100% phosphorylation peptide was delivered into the control wells of a 384-well assay plate. 5 μL of 2× (1 nM) MAPKAPK2 and 2× peptide (4 μM) mixture in assay buffer was dispensed to remaining columns of assay plate using Eppendorf electronic multiple channel pipette. The assay plate was incubated for 20 minutes. 5 μL of 2× ATP (6 μM) in assay buffer was dispensed to each well and then the assay plate was lightly centrifuged. The assay plate was incubated for an additional 120 minutes.
5 μL of development reagent A was dispensed to all wells using Eppendorf electronic multiple channel pipette. After incubating the development reaction for 120 min, plates were read on a Perkin Elmer Envision instrument.
Percent phosphorylation was calculated using the following formula:
[formula] Where • C100%=Average Coumarin emission signal of the 100% Phos. Control • C0%=Average Coumarin emission signal of the 0% Phos. Control • F100%=Average Fluorescein emission signal of the 100% Phos. Control • F0%=Average Flurescein emission signal of the 0% Phos. Control

Sequence of MAPKAPK2 (P49137 whole entry, species assumed): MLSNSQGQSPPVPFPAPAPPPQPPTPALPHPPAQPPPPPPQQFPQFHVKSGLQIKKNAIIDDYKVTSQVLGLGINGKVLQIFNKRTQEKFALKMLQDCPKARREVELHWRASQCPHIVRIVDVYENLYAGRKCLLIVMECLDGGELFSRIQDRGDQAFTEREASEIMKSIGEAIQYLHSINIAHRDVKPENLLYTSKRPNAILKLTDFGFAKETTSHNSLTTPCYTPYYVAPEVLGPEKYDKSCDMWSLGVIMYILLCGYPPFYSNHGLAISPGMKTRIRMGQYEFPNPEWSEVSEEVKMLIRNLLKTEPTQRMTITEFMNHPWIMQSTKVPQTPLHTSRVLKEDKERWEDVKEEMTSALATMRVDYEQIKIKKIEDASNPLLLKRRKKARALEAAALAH

Compound | IC50 [nM]
CN[C@@H]1CN(c2ccc3c(c2)Cn2cc(-c4ccc(F)cc4)cc2-c2nccn2-3)C[C@H]1CO (relative stereo) [Compound 491, ((Trans)-1-(12-(4-fluorophenyl)-9H-benzo[e]imidazo[2,1-c]pyrrolo[1,2-a][1,4]diazepin-7-yl)-4-(methylamino)pyrrolidin-3-yl)methanol] | < 50
CN(C)C[C@@H]1CN(c2ccc3c(n2)Cn2cc(-c4ccc(F)cc4)cc2-c2nccn2-3)C[C@H]1O [Compound 436, (3S,4R)-4-((dimethylamino)methyl)-1-(12-(4-fluorophenyl)-9H-imidazo[2,1-c]pyrido[3,2-e]pyrrolo[1,2-a][1,4]diazepin-7-yl)pyrrolidin-3-ol] | < 50
CNC[C@@H]1CN(c2ccc3c(c2)Cn2cc(-c4ccc(F)cc4)cc2-c2ncnn2-3)C[C@@H]1F [Compound 499, 1-((3R,4R)-4-fluoro-1-(12-(4-fluorophenyl)-9H-benzo[e]pyrrolo[1,2-a][1,2,4]triazolo[5,1-c] [1,4]diazepin-7-yl)pyrrolidin-3-yl)-N-methylmethanamine] | < 50
CNC[C@H]1CN(c2ccc3c(c2)Cn2cc(-c4ccc(F)cc4)cc2-c2nccn2-3)C[C@H]1F [Compound 466, 1-((3S,4S)-4-fluoro-1-(12-(4-fluorophenyl)-9H-benzo[e]imidazo[2,1-c]pyrrolo[1,2-a][1,4]diazepin-7-yl)pyrrolidin-3-yl)-N-methylmethanamine] | < 50
NCC[C@H]1CN(c2ccc3c(c2)Cn2cc(-c4ccc(F)cc4)cc2-c2nccn2-3)C[C@@H]1O (relative stereo) [Compound 492, Trans-4-(2-aminoethyl)-1-(12-(4-fluorophenyl)-9H-benzo[e]imidazo[2,1-c]pyrrolo[1,2-a][1,4]diazepin-7-yl)pyrrolidin-3-ol] | < 50
N#Cc1ccc(-c2cc3n(c2Cl)Cc2cc(N4CC[C@@H](CN)C4)ccc2-n2cnnc2-3)cc1 [Compound 169, (S)-4-(7-(3-(aminomethyl)pyrrolidin-1-yl)-11-chloro-9H-benzo[e]pyrrolo[1,2-a][1,2,4]tri-azolo[3,4-c][1,4]diazepin-12-yl)benzonitrile] | < 50
C[C@H]1c2cc(N3C[C@@H](CN(C)C)[C@H](O)C3)ccc2-n2ccnc2-c2cc(-c3ccc(F)cc3)cn21 [Compound 509, (3S,4R)-4-((dimethylamino)methyl)-1-((S)-12-(4-fluorophenyl)-9-methyl-9H-benzo[e]imidazo[2,1-c]pyrrolo[1,2-a][1,4]diazepin-7-yl)pyrrolidin-3-ol] | < 50
Cc1cc(N2C[C@@H](CN(C)C)[C@H](O)C2)cc2c1-n1ccnc1-c1cc(-c3ccc(F)cc3)cn1C2 [Compound 512, (3S,4R)-4-((dimethylamino)methyl)-1-(12-(4-fluorophenyl)-5-methyl-9H-benzo[e]imidazo[2,1-c]pyrrolo[1,2-a][1,4]diazepin-7-yl)pyrrolidin-3-ol] | 500 to 1000
CNCC1CN(c2ccc3c(c2)Cn2cc(-c4ccc(F)cc4)cc2-c2nnnn2-3)C1 [Compound 386, 1-(1-(12-(4-fluorophenyl)-9H-benzo[e]pyrrolo[1,2-a]tetrazolo[5,1-c][1,4]diazepin-7-yl)azetidin-3-yl)-N-methylmethanamine] | < 50
CN[C@H]1CCN(c2ccc3c(c2)Cn2cc(-c4ccc(F)cc4)cc2-c2ncnn2-3)C1 [Compound 410, (S)-1-(12-(4-fluorophenyl)-9H-benzo[e]pyrrolo[1,2-a][1,2,4]triazolo[5,1-c][1,4]diazepin-7-yl)-N-methylpyrrolidin-3-amine] | 50 to 100

Continued, values first:

IC50 [nM] | Compound
< 50 | Fc1ccc(-c2cc3n(c2)Cc2cc(N4CCC5(CC4)CNC5)ccc2-n2nnnc2-3)cc1 [Compound 402, 12-(4-fluorophenyl)-7-(2,7-diazaspiro[3.5]nonan-7-yl)-9H-benzo[e]pyrrolo[1,2-a]tetrazolo[5,1-c][1,4]diazepine]
< 50 | CN(C)C[C@@H]1CN(c2ccc3c(c2)Cn2cc(-c4ccc(C#N)cc4)cc2-c2nccn2-3)C[C@@H]1O [Compound 129, 4-(7-((3R,4R)-3-((dimethylamino)methyl)-4-hydroxypyrrolidin-1-yl)-9H-benzo[e]imidazo[2,1-c]pyrrolo[1,2-a][1,4]diazepin-12-yl)benzonitrile]
< 50 | CN(C)[C@@H]1CN(c2ccc3c(c2)Cn2cc(-c4ccc(C#N)cc4)cc2-c2nccn2-3)C[C@@H]1O [Compound 134, 4-(7-((3R,4S)-3-(dimethylamino)-4-hydroxypyrrolidin-1-yl)-9H-benzo[e]imidazo[2,1-c]pyrrolo[1,2-a][1,4]diazepin-12-yl)benzonitrile]
50 to 100 | N#Cc1ccc(-c2cc3n(c2)Cc2cc(N4CCC5(CNC5)C4)ncc2-n2ccnc2-3)cc1 [Compound 323, 4-(7-(2,6-diazaspiro[3.4]octan-6-yl)-9H-imidazo[2,1-c]pyrido[3,4-e]pyrrolo[1,2-a][1,4]diazepin-12-yl)benzonitrile]
< 50 | CCNC[C@@H]1CCN(c2ccc3c(c2)Cn2cc(-c4ccc(F)cc4)cc2-c2nccn2-3)C1 [Compound 464, (S)—N-((1-(12-(4-fluorophenyl)-9H-benzo[e]imidazo[2,1-c]pyrrolo[1,2-a][1,4]diazepin-7-yl)pyrrolidin-3-yl)methyl)ethanamine]
< 50 | CN(C)[C@@H]1CN(c2ccc3c(c2)Cn2cc(-c4ccc(C#N)cc4)cc2-c2nccn2-3)C[C@H]1O [Compound 130, 4-(7-((3R,4R)-3-(dimethylamino)-4-hydroxypyrrolidin-1-yl)-9H-benzo[e]imidazo[2,1-c]pyrrolo[1,2-a][1,4]diazepin-12-yl)benzonitrile]
< 50 | CNC[C@H]1CN(c2ccc3c(c2)Cn2cc(-c4ccc(C#N)cc4)cc2-c2nncn2-3)C[C@@H]1O (relative stereo) [Compound 72, 4-(7-(trans-3-hydroxy-4-((methylamino)methyl)pyrrolidin-1-yl)-9H-benzo[e]pyrrolo[1,2-a][1,2,4]triazolo[3,4-c][1,4]diazepin-12-yl)benzonitrile]
50 to 100 | CNCC1CN(c2cc3c(cn2)-n2cnnc2-c2cc(-c4ccc(F)cc4)cn2C3)C1 [Compound 330, 1-(1-(12-(4-fluorophenyl)-9H-benzo[e]pyrrolo[1,2-a][1,2,4]triazolo[3,4-c][1,4]diazepin-7-yl)azetidin-3-yl)-N-methylmethanamine]
< 50 | N#Cc1ccc(-c2cc3n(c2)Cc2cc(N4CC[C@H]5NCC[C@@H]54)ccc2-n2nnnc2-3)cc1 (racemic) [Compound 232, 4-(7-(trans-hexahydropyrrolo[3,2-b]pyrrol-1(2H)-yl)-9H-benzo[e]pyrrolo[1,2-a]tetrazolo[5,1-c][1,4]diazepin-12-yl)benzonitrile]
< 50 | CN(C)[C@@H]1CN(c2ccc3c(c2)Cn2cc(-c4ccc(F)cc4)cc2-c2nccn2-3)C[C@H]1O [Compound 351, (3R,4R)-4-(dimethylamino)-1-(12-(4-fluorophenyl)-9H-benzo[e]imidazo[2,1-c]pyrrolo[1,2-a] [1,4]diazepin-7-yl)pyrrolidin-3-ol]
< 50 | N#Cc1ccc(-c2cc3n(c2)Cc2cc(N4CC[C@@H](CN5CCC(O)CC5)C4)ccc2-n2cnnc2-3)cc1 [Compound 110, (S)-4-(7-(3-((4-hydroxypiperidin-1-yl)methyl)pyrrolidin-1-yl)-9H-benzo[e]pyrrolo[1,2-a] [1,2,4]triazolo[3,4-c][1,4]diazepin-12-yl)benzonitrile]
